Laboratory results published in PubChem BioAssay AID1259407 (Chemical Carcinogenesis Research Information System (CCRIS), 2018).
Calls of active or inactive are those of the source. No rule for the calls is given here.

Tested on: CCRIS mutagenicity, Ames/micronucleus/aberration tests
Experiment: CCRIS mutagenicity studies
[1] = Test System: AMES SALMONELLA TYPHIMURIUM, Strain/Indicator: TA98, Metabolic Activation: NONE, Method: STANDARD PLATE
[2] = Test System: AMES SALMONELLA TYPHIMURIUM, Strain/Indicator: TA98, Metabolic Activation: RAT, LIVER, S-9, AROCLOR 1254, Method: STANDARD PLATE
[3] = Test System: AMES SALMONELLA TYPHIMURIUM, Strain/Indicator: TA100, Metabolic Activation: NONE, Method: STANDARD PLATE
[4] = Test System: AMES SALMONELLA TYPHIMURIUM, Strain/Indicator: TA100, Metabolic Activation: RAT, LIVER, S-9, AROCLOR 1254, Method: STANDARD PLATE

## C=Cc1ccc(O)c(OC)c1
Test System: AMES SALMONELLA TYPHIMURIUM, Strain/Indicator: TA98, Metabolic Activation: HAMSTER, LIVER, S-9, AROCLOR 1254, Method: STANDARD PLATE
  mutagenic call: inactive; negative
[1]
  mutagenic call: inactive; negative
[2]
  mutagenic call: inactive; negative
Test System: AMES SALMONELLA TYPHIMURIUM, Strain/Indicator: TA100, Metabolic Activation: HAMSTER, LIVER, S-9, AROCLOR 1254, Method: STANDARD PLATE
  mutagenic call: inactive; negative
[3]
  mutagenic call: inactive; negative
[4]
  mutagenic call: inactive; negative
Test System: AMES SALMONELLA TYPHIMURIUM, Strain/Indicator: TA1535, Metabolic Activation: HAMSTER, LIVER, S-9, AROCLOR 1254, Method: STANDARD PLATE
  mutagenic call: inactive; negative
Test System: AMES SALMONELLA TYPHIMURIUM, Strain/Indicator: TA1535, Metabolic Activation: NONE, Method: STANDARD PLATE
  mutagenic call: inactive; negative
Test System: AMES SALMONELLA TYPHIMURIUM, Strain/Indicator: TA1535, Metabolic Activation: RAT, LIVER, S-9, AROCLOR 1254, Method: STANDARD PLATE
  mutagenic call: inactive; negative
Test System: AMES SALMONELLA TYPHIMURIUM, Strain/Indicator: TA1537, Metabolic Activation: HAMSTER, LIVER, S-9, AROCLOR 1254, Method: STANDARD PLATE
  mutagenic call: inactive; negative
Test System: AMES SALMONELLA TYPHIMURIUM, Strain/Indicator: TA1537, Metabolic Activation: NONE, Method: STANDARD PLATE
  mutagenic call: inactive; negative
Test System: AMES SALMONELLA TYPHIMURIUM, Strain/Indicator: TA1537, Metabolic Activation: RAT, LIVER, S-9, AROCLOR 1254, Method: STANDARD PLATE
  mutagenic call: inactive; negative
Test System: MOUSE LYMPHOMA, Strain/Indicator: L5178Y (TK+/TK-), Metabolic Activation: NONE, Method: SUSPENSION/PLATE
  mutagenic call: inactive; negative. reevaluation of results: equivocal
Test System: MOUSE LYMPHOMA, Strain/Indicator: L5178Y (TK+/TK-), Metabolic Activation: RAT, LIVER, S-9, AROCLOR 1254, Method: SUSPENSION/PLATE
  mutagenic call: inactive; negative. reevaluation of results: negative

## Nc1nc(=S)c2[nH]cnc2[nH]1
End Point: IN VITRO CHROMOSOMAL ABERRATIONS, Test System: HUMAN HCT116/3-6 CELLS, Metabolic Activation: NONE
  mutagenic call: active; positive
End Point: IN VITRO CHROMOSOMAL ABERRATIONS, Test System: HUMAN HCT116 CELLS, Metabolic Activation: NONE
  mutagenic call: active; positive
End Point: IN VITRO CHROMOSOMAL ABERRATIONS, Test System: HUMAN MT1 CELLS, Metabolic Activation: NONE
  mutagenic call: active; positive
End Point: IN VITRO CHROMOSOMAL ABERRATIONS, Test System: HUMAN TK6 CELLS, Metabolic Activation: NONE
  mutagenic call: active; positive

## Cc1cccs1
Test System: AMES SALMONELLA TYPHIMURIUM, Strain/Indicator: TA98, Metabolic Activation: NONE, Method: PREINCUBATION
  mutagenic call: inactive; negative
Test System: AMES SALMONELLA TYPHIMURIUM, Strain/Indicator: TA98, Metabolic Activation: RAT, LIVER, S-9, AROCLOR 1254, Method: PREINCUBATION
  mutagenic call: inactive; negative
Test System: AMES SALMONELLA TYPHIMURIUM, Strain/Indicator: TA100, Metabolic Activation: NONE, Method: PREINCUBATION
  mutagenic call: inactive; negative
Test System: AMES SALMONELLA TYPHIMURIUM, Strain/Indicator: TA100, Metabolic Activation: RAT, LIVER, S-9, AROCLOR 1254, Method: PREINCUBATION
  mutagenic call: inactive; negative
Test System: AMES SALMONELLA TYPHIMURIUM, Strain/Indicator: TA102, Metabolic Activation: NONE, Method: PREINCUBATION
  mutagenic call: inactive; negative
Test System: AMES SALMONELLA TYPHIMURIUM, Strain/Indicator: TA102, Metabolic Activation: RAT, LIVER, S-9, AROCLOR 1254, Method: PREINCUBATION
  mutagenic call: inactive; negative

## CCC(CCC(C)=O)COC(=O)c1ccccc1C(=O)O (stereo unspecified)
Test System: AMES SALMONELLA TYPHIMURIUM, Strain/Indicator: TA97, Metabolic Activation: NONE, Method: STANDARD PLATE
  mutagenic call: inactive; negative
Test System: AMES SALMONELLA TYPHIMURIUM, Strain/Indicator: TA97, Metabolic Activation: RAT, LIVER, S-9, AROCLOR 1254, Method: STANDARD PLATE
  mutagenic call: inactive; negative
Test System: AMES SALMONELLA TYPHIMURIUM, Strain/Indicator: TA97, Metabolic Activation: RAT, LIVER, S-9, DI(2-ETHYLHEXYL)PHTHALATE, Method: STANDARD PLATE
  mutagenic call: inactive; negative
[1]
  mutagenic call: inactive; negative
[2]
  mutagenic call: inactive; negative
Test System: AMES SALMONELLA TYPHIMURIUM, Strain/Indicator: TA98, Metabolic Activation: RAT, LIVER, S-9, DI(2-ETHYLHEXYL)PHTHALATE, Method: STANDARD PLATE
  mutagenic call: inactive; negative
[3]
  mutagenic call: inactive; negative
[4]
  mutagenic call: inactive; negative
Test System: AMES SALMONELLA TYPHIMURIUM, Strain/Indicator: TA100, Metabolic Activation: RAT, LIVER, S-9, DI(2-ETHYLHEXYL)PHTHALATE, Method: STANDARD PLATE
  mutagenic call: inactive; negative
Test System: AMES SALMONELLA TYPHIMURIUM, Strain/Indicator: TA102, Metabolic Activation: NONE, Method: STANDARD PLATE
  mutagenic call: inactive; negative
Test System: AMES SALMONELLA TYPHIMURIUM, Strain/Indicator: TA102, Metabolic Activation: RAT, LIVER, S-9, AROCLOR 1254, Method: STANDARD PLATE
  mutagenic call: inactive; negative
Test System: AMES SALMONELLA TYPHIMURIUM, Strain/Indicator: TA102, Metabolic Activation: RAT, LIVER, S-9, DI(2-ETHYLHEXYL)PHTHALATE, Method: STANDARD PLATE
  mutagenic call: inactive; negative
